Experimental findings from paper PMC11705955, “Lack of activity of HIV-1 integrase strand-transfer inhibitors on recombinase activating gene (RAG) activity at clinically relevant concentrations” (Microbiology Spectrum, 2024) are described below.

Experiment [1] deals with T1, recombinant human core RAG1 (AA387-1011)/core RAG2 (AA1-387) in the presence of HMGB1 (Homo sapiens, UniProt P15918+P55895).
T1 construct: made in house; host or cells: RAG1/RAG2 co-expressed in Expi293F GnTI human cells; HMGB1 in E. coli BL21DE3
T1 sequence (P15918 387-1011): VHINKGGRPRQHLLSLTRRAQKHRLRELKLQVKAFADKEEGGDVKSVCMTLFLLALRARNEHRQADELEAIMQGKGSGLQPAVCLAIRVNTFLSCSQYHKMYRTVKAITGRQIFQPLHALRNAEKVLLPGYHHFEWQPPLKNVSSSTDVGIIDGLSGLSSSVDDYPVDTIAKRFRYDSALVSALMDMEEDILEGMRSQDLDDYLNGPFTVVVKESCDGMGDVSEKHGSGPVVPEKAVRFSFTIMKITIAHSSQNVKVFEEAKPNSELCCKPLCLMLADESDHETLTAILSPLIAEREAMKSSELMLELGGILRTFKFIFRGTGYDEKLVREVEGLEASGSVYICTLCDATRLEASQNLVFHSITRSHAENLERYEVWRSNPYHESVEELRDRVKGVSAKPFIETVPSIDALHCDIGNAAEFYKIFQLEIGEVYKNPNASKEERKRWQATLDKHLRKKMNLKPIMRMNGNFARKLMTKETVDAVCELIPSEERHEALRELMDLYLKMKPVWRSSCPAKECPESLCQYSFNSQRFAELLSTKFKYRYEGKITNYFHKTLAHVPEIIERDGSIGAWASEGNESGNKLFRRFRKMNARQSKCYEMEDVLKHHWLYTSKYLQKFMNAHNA
T1 sequence (P55895 1-387): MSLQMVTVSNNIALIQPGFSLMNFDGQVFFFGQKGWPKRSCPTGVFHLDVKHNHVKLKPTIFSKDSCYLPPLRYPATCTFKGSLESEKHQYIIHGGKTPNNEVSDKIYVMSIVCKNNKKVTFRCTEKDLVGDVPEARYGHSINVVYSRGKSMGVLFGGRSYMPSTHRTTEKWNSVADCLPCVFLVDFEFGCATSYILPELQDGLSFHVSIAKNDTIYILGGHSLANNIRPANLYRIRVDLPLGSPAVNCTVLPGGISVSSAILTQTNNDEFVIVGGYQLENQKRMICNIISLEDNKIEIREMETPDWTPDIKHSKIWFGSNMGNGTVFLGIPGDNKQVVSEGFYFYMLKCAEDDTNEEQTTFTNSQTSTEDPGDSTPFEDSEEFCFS
Put plainly: Biochemical RAG DNA cleavage assay (gel-based, dsDNA 12RSS/23RSS substrate). Particulars: 25 nM RAG1-RAG2, 575 nM HMGB1, 10 nM dsDNA, 5 mM MgCl2, 1 h 37°C, no serum. The source says: To directly observe the potential inhibition of RAG1/RAG2, we measured the effect of INSTIs on DNA cleavage by RAG1/RAG2 in the presence of HMGB1. This biochemical system utilizes pre-assembled recombinant human core RAG1 (AA387-1011)/core RAG2 (AA1-387) in the presence of excess truncated HMGB1 (AA1-163) and a linear dsDNA RSS substrate, using gel electrophoresis and a fluorescent dye to monitor cleavage products (Fig. 2A) ([24]). The dsDNA RSS substrate, containing both the 12RSS and 23RSS, was designed to have the different cleavage products resolved via gel electrophoresis. RAG1/RAG2 can singly cleave either the 12RSS or the 23RSS, or both, leading to potentially five different products in the reaction (Fig. 2B). HMGB1 orients RAG1/RAG2 for proper binding to the RSS substrate ([16]). We quantified the activity of RAG as the percentage of substrate conversion to a specific cleaved product, as separated by agarose gel electrophoresis and determined by the DNA-binding fluorescent dye. With the 569-bp substrate, a single cleavage of the 12RSS results in a 492-bp dsDNA and a 77-bp hairpin. Cleavage of the 23RSS alone produces a 433-bp dsDNA and a 136-bp hairpin. Successful cleavage of both RSSs results in a 356-bp dsDNA and both of the 77- and 136-bp hairpins. For the RAG activity analysis, we measured the amount of double cleaved product (356 bp) in relation to the amount of substrate (569 bp) at the end of the reaction. The optimal concentrations of RAG1/RAG2, HMGB1, and MgCl2 were determined through titration (Fig. S2). Because there is no direct RAG1/RAG2 inhibitor previously characterized, we used suramin, a polyanionic compound commonly used as a non-specific inhibitor for DNA/RNA binding or processing proteins as a control for inhibition ([25], [26]).
Prior to the cleavage assay, compounds at the designated concentrations were spotted into 96-well plates using the Tecan Digital D300e (Tecan, Mannedorf, Switzerland). RAG1/RAG2 was incubated with HMGB1 and MgCl2 on ice for at least 15 min in a reaction buffer (25-mM 3-(N-morpholino)propanesulfonic acid [MOPS], pH 7.0, 50-mM KCl, and 2-mM DTT). After the initial incubation, the enzyme solution was added to the compound plates and incubated for an additional 15 min at room temperature. dsDNA substrate in reaction buffer was added to the plates to initiate the reaction. The final conditions of the reaction are 25-nM RAG1–RAG2 complex, 575-nM HMGB1, 10-nM dsDNA substrate, and 5-mM MgCl2. After 1 h at 37°C, reactions were quenched by the addition of final concentrations of 0.19% SDS, 45.5-µg/mL Proteinase K, and 60-mM EDTA.
Glycerol was added to a final concentration of 7.6% in each sample, and samples were loaded onto non-denaturing 6% Tris–borate–EDTA (TBE) gels in 1× TBE buffer. The samples were run at 100 V for 1.5 h, and gels were stained with 1× SYBR Gold in 1× TBE for 20 min. The stained gels were imaged with an Amersham Typhoon Biomolecular Imager.
The gel images were analyzed using ImageQuant software (Cytiva). The densities of the 569-bp-length substrate and fully cleaved 356-bp-length product were quantified. The product density was divided by the sum of substrate and product bands to obtain a percent product value. These calculated values were subtracted from a negative control (pre-quenched reaction where EDTA was added before reaction was initiated) and then normalized to the DMSO-treated control. The normalized data were plotted against concentration using GraphPad Prism (version 9.3; GraphPad Software, San Diego, CA, USA).

The target in experiment [2] is T2, human core RAG1 (AA387-1011), MBP-10N-PreScission-RAG1 (human, UniProt P15918-1 387-1011).
T2 construct: also called RAG1 core domain; source: Expi293F GnTI cells, plasmids transfected (co-expressed with core RAG2), purified (MBP-Trap, Superdex 200); not shown: MBP, N-terminal, kept
T2 sequence (looked up): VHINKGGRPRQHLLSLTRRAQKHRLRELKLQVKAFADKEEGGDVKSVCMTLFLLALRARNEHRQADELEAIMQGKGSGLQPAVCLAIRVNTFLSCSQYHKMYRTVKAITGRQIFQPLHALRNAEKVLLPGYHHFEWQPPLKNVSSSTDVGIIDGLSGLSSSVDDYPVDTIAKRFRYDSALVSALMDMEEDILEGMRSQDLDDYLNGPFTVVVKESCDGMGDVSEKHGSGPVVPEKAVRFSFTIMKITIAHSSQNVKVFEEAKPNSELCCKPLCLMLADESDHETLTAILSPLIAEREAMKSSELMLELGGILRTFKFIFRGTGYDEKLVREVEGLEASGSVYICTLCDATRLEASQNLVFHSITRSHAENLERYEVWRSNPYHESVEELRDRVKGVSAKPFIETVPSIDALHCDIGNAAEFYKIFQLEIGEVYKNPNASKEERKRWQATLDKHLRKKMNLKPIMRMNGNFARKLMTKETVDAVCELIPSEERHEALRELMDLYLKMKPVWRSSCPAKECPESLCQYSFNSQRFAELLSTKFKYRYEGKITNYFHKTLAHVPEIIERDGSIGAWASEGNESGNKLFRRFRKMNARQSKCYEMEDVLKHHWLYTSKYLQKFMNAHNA
Kind of experiment: SEC; analytical SEC-HPLC, Superdex 200 Increase 5/150 GL column, 10-µg protein sample; co-expressed and co-purified MBP-tagged core RAG1 and core RAG2. Particulars: both partners purified.

With `Cc1ccc(C(=O)Nc2ccc(S(=O)(=O)O)c3cc(S(=O)(=O)O)cc(S(=O)(=O)O)c23)cc1NC(=O)c1cccc(NC(=O)Nc2cccc(C(=O)Nc3cc(C(=O)Nc4ccc(S(=O)(=O)O)c5cc(S(=O)(=O)O)cc(S(=O)(=O)O)c45)ccc3C)c2)c1` [Suramin], in experiment [1], the IC50 came to 4.5 ± 0.4 µM.

B1: human core RAG2 (AA1-387), MBP-5A-RAG2 (domain or fragment, UniProt P55895 1-387, looked up)
chain: MSLQMVTVSNNIALIQPGFSLMNFDGQVFFFGQKGWPKRSCPTGVFHLDVKHNHVKLKPTIFSKDSCYLPPLRYPATCTFKGSLESEKHQYIIHGGKTPNNEVSDKIYVMSIVCKNNKKVTFRCTEKDLVGDVPEARYGHSINVVYSRGKSMGVLFGGRSYMPSTHRTTEKWNSVADCLPCVFLVDFEFGCATSYILPELQDGLSFHVSIAKNDTIYILGGHSLANNIRPANLYRIRVDLPLGSPAVNCTVLPGGISVSSAILTQTNNDEFVIVGGYQLENQKRMICNIISLEDNKIEIREMETPDWTPDIKHSKIWFGSNMGNGTVFLGIPGDNKQVVSEGFYFYMLKCAEDDTNEEQTTFTNSQTSTEDPGDSTPFEDSEEFCFS
notes: also called RAG2 core domain; source: Expi293F GnTI cells, plasmids transfected (co-expressed with core RAG1), purified (MBP-Trap, Superdex 200); not shown: MBP, N-terminal, kept
As to B1, the binding result in experiment [2] is given as “binds”.
